According to patent US7807854B2, “Effective use method of medicaments and method of preventing expression of side effect” (priority 2004, dated 2010):

Experiments:
Assay type in all cases: in vivo
skin allograft = assay: Prolonging effect on skin allograft survival between MHC-compatible rat strains (LEW donor, F344 recipient)
Excerpt: Five animals were included per group, and all rats were bread in separate cages. LEW(RT1^l) was selected as donor, and F344(RT1^lvl) was selected as recipient. A part of dermis (1.8×1.8 cm) on the back of recipient was excised, and after giving several drops of penicillin solution (40,000 U/mL, in saline) thereon, a full thickness skin graft (1.8×1.8 cm) prepared from abdominal part of donor was put thereon. First-aid adhesive tape (30×72 mm) was applied so that the center pad thereof lies on the graft, and secured by binding aeration tape (adhesive bandage, 3.8×15 cm) therearound. At 5 days, the first-aid adhesive tape and the aeration tape were removed by cutting with scissors.
Drug administration was conducted by orally administering 0.5 mL/100 g B.W. of drug once a day everyday from the day of skin transplantation. Control group was received distilled water. As the CsA, Sandimmun injection (50 mg/mL) diluted in distilled water was administered. As the FK506, the filling of Prograf capsule (Fujisawa Pharmaceutical Co., Ltd.) suspended in distilled water was administered. […] A combinational administration group was received a mixture prepared by mixing liquids to be administered right before administration.
Grafts were observed everyday from fifth day of transplantation at which the first-aid adhesive tape was removed, and the condition that 90% or more of graft epithelium necrotized to turn brown was determined as occurrence of rejection. Number of days from transplantation to determination of rejection was defined as a survival time.
Mean value of survival times for each group was calculated as a mean survival time (MST). In each group (n=5), the third-longest survival time was defined as a median value.

adjuvant arthritis = assay: Rat adjuvant arthritis (AA) model, hind limb volume increase; details: for Inhibition of adjuvant arthritis (hind limb volume increase): oral once daily, Day 21
Method: In a footpad of right hind limb of 6 or 7-week-old female LEW/Crj rat (Charles River Japan, Inc.), 0.05 mL (0.6 mg/animal) of killed M. butyricum (12 mg/mL) suspended in liquid paraffin was intradermally injected to cause arthritis (Day 0). Test compound was dissolved or suspended in pure water and orally administered in a volume of 0.5 mL per 100 g of body weight of rat. Adjuvant control was received only pure water. As for the combinational administration group, an aqueous solution of KNF-299 and an aqueous solution of MTX(Sigma) were administered after being mixed before administration. Administration was conducted once a day everyday from Day 0 to end of the experiment. Evaluation of arthritis was made by measuring volumes of left and right hind limbs by using a volume meter (MK-550, Muromachi Kikai) at Day 0, 3, 8, 14, 17, and 21, and determining an increase relative to hind limb at Day 0.

transplanted heart = assay: Prolonging effect on heart graft survival between MHC-incompatible rat strains (DA donor, LEW recipient)
Method: Effect of KNF-299 was examined in allogeneic heart transplantation between MHC-incompatible rats. Using combination of DA (RT1^a) rat as a donor, and LEW (RT1^l) rat as a recipient, heterotopic heart transplantation in which heart of donor is joined to neck vessel of recipient with a cuff was conducted with reference to a literature (Microsurgery; 21, 16-21, 2001) or the like.
Drug was administered orally once a day everyday from the day of heart transplantation. MPA was prepared from the product purchased from Wako Pure Chemical Industries, Ltd. so that the concentration was 20 mg/mL in a saline containing 0.5% carboxymethyl cellulose, 0.4% Tween 80, and 0.9% benzyl alcohol, and administered in 0.1 mL/100 g B.W.
KNF-299 was dissolved in distilled water in a concentration of 0.06 mg/mL, and administered in 0.5 mL/100 g B.W. A control group was received a vehicle used for MPA administration liquid.
Cardiac pulsation of the transplanted heart was checked by inspection or palpation, and determination of rejection was made when cardiac pulsation stopped. Number of days from transplantation to determination of rejection was defined as survival time. Mean value of survival time in each group was calculated as mean survival time (MST).

[1] = FK506 3 mg/kg oral once daily, third test (headed Test 2)
[2] = KNF-299 0.03 mg/kg oral once daily, Test 2
[3] = KNF-299 0.1 mg/kg oral once daily, third test (headed Test 2)

C=CC[C@@H]1/C=C(\C)C[C@H](C)C[C@H](OC)[C@H]2O[C@@](O)(C(=O)C(=O)N3CCCC[C@H]3C(=O)O[C@H](/C(C)=C/[C@@H]3CC[C@@H](O)[C@H](OC)C3)[C@H](C)[C@@H](O)CC1=O)[C@H](C)C[C@@H]2OC [FK506, tacrolimus, reference compound]
Survival time (day) of skin graft, MST (skin allograft; [1]): 9.2 days | Survival time (day) of skin graft, Median (skin allograft; [1]): 9.0 days

NC(CO)(CO)CCc1ccc(Sc2cccc(OCc3ccccc3)c2)cc1Cl [KNF-299, 2-amino-2-[4-(3-benzyloxyphenylthio)-2-chlorophenyl]ethyl-1,3-propanediol]
Survival time (day) of skin graft, MST (skin allograft; [2]): 9.0 days | Survival time (day) of skin graft, Median (skin allograft; [2]): 9.0 days | Survival time (day) of skin graft, MST (skin allograft; [3]): 8.8 days | Survival time (day) of skin graft, Median (skin allograft; [3]): 9.0 days | Survival time (day) of skin graft, Median (skin allograft; KNF-299 3 mg/kg oral once daily, Test 1): >30 days | Effect on skin graft survival (in words) (skin allograft; KNF-299 3 mg/kg single administration): clear prolonging effect | Inhibition of adjuvant arthritis (hind limb volume increase) (adjuvant arthritis; KNF-299 0.01 mg/kg alone): 36% | Ability to prevent onset of adjuvant arthritis (adjuvant arthritis; KNF-299 0.1 mg/kg p.o. once daily, FIG. 1): reaches almost maximum | Survival time (day) of transplanted heart, MST (transplanted heart; KNF-299 0.3 mg/kg oral once daily): 7.0 days | Prolonging effect on heart graft mean survival time compared to control group (transplanted heart; KNF-299 0.3 mg/kg single administration): 1.2 days

COc1c(C)c2c(c(O)c1C/C=C(\C)CCC(=O)O)C(=O)OC2 [MPA, mycophenolic acid, reference compound]
Survival time (day) of transplanted heart, MST (transplanted heart; MPA 20 mg/kg oral once daily): >54.4 days | Rejection preventing effect on transplanted heart (in words) (transplanted heart; MPA 20 mg/kg single administration): insufficient

CN(Cc1cnc2nc(N)nc(N)c2n1)c1ccc(C(=O)N[C@@H](CCC(=O)O)C(=O)O)cc1 [MTX, methotrexate]
Inhibition of adjuvant arthritis (hind limb volume increase) (adjuvant arthritis; MTX 0.025 mg/kg alone, not significant): 20% | Ability to prevent onset of adjuvant arthritis (adjuvant arthritis; MTX 0.03 mg/kg oral once daily, FIG. 2): not observed | Inhibition of adjuvant arthritis (hind limb volume increase) (adjuvant arthritis; MTX 0.05 mg/kg alone, not significant): 35% | Ability to prevent onset of adjuvant arthritis (adjuvant arthritis; MTX 0.1 mg/kg oral once daily, FIG. 2): reached maximum
